Reference: publication PMC10008561 (Nature Communications, 2023)
Values joined by “and” are separate entries in the source; they are usually repeats but may differ in a detail not shown here. Identical values can stand only once.

Experiments:
[1] = target: T1, human KOR (GoA) (Homo sapiens, UniProt P41145, N326A); experiment: cell-based
T1 construct: expressed in transfected cells; host or cells: HEK293T

[2] = target: T2, human KOR (GoA) (Homo sapiens, UniProt P41145, E297A); experiment: cell-based
T2 construct: expressed in transfected cells; host or cells: HEK293T

[3] = target: T3, human KOR (GoA) (Homo sapiens, UniProt P41145, R257A); experiment: cell-based
T3 construct: expressed in transfected cells; host or cells: HEK293T

[4] = target: T4, human KOR (GoA) (Homo sapiens, UniProt P41145, N141A); experiment: cell-based
T4 construct: expressed in transfected cells; host or cells: HEK293T

[5] = target: T5, human KOR (GoA) (Homo sapiens, UniProt P41145, Q115N); experiment: cell-based
T5 construct: expressed in transfected cells; host or cells: HEK293T

[6] = target: T6, human KOR (GoA) (Homo sapiens, UniProt P41145, F114L); experiment: cell-based
T6 construct: expressed in transfected cells; host or cells: HEK293T

[7] = target: T7, human KOR (GoA) (Homo sapiens, UniProt P41145, R271A); experiment: cell-based
T7 construct: expressed in transfected cells; host or cells: HEK293T

[8] = target: T8, human KOR (GoA) (Homo sapiens, UniProt P41145, Y320L); experiment: cell-based; conditions: HEK-293T
T8 construct: expressed in transfected cells; host or cells: HEK293T

[9] = target: T9, human KOR (GoA) (Homo sapiens, UniProt P41145, L253A); experiment: cell-based; conditions: HEK-293T
T9 construct: expressed in transfected cells; host or cells: HEK293T

[10] = target: T10, human KOR (GoA) (Homo sapiens, UniProt P41145); experiment: cell-based
T10 construct: expressed in transfected cells; host or cells: HEK293T

[11] = target: T11, human KOR (GoA) (Homo sapiens, UniProt P41145, D334A); experiment: cell-based
T11 construct: expressed in transfected cells; host or cells: HEK293T

[12] = target: T12, human KOR (GoA) (Homo sapiens, UniProt P41145, T94V); experiment: cell-based
T12 construct: expressed in transfected cells; host or cells: HEK293T

[13] = target: T13, human KOR (GoA) (Homo sapiens, UniProt P41145, K200A); experiment: cell-based
T13 construct: expressed in transfected cells; host or cells: HEK293T

[14] = target: T14, human KOR (GoA) (Homo sapiens, UniProt P41145, D105A); experiment: cell-based
T14 construct: expressed in transfected cells; host or cells: HEK293T

[15] = target: T15, human KOR (GoA) (Homo sapiens, UniProt P41145, Y139L); experiment: cell-based
T15 construct: expressed in transfected cells; host or cells: HEK293T

[16] = target: T16, human KOR (GoA) (Homo sapiens, UniProt P41145, R274A); experiment: cell-based
T16 construct: expressed in transfected cells; host or cells: HEK293T

[17] = target: T17, human KOR (GoA) (Homo sapiens, UniProt P41145, K227A); experiment: cell-based
T17 construct: expressed in transfected cells; host or cells: HEK293T

[18] = target: T18, human KOR (GoA) (Homo sapiens, UniProt P41145, D155A); experiment: cell-based
T18 construct: expressed in transfected cells; host or cells: HEK293T

[19] = target: T19, human KOR (GoA) (Homo sapiens, UniProt P41145, N322A); experiment: cell-based
T19 construct: expressed in transfected cells; host or cells: HEK293T

[20] = target: T20, human KOR (GoA) (Homo sapiens, UniProt P41145, G319L); experiment: cell-based
T20 construct: expressed in transfected cells; host or cells: HEK293T

[21] = target: T21, human KOR (GoA) (Homo sapiens, UniProt P41145, F283A); experiment: cell-based
T21 construct: expressed in transfected cells; host or cells: HEK293T

[22] = target: T22, human KOR (GoA) (Homo sapiens, UniProt P41145, D266A); experiment: cell-based
T22 construct: expressed in transfected cells; host or cells: HEK293T

[23] = target: T23, human KOR (GoA) (Homo sapiens, UniProt P41145, R170A); experiment: cell-based
T23 construct: expressed in transfected cells; host or cells: HEK293T

[24] = target: T24, MOR (Homo sapiens, UniProt P35372); experiment: Radioligand competition binding (3H-Diprenorphine)
T24 construct: expressed in transfected cells; host or cells: HEK293

[25] = target: T25, human KOR (Homo sapiens, UniProt P41145, S324C); experiment: cell-based; conditions: HEK-293T
T25 construct: expressed in transfected cells; host or cells: HEK 293T (ATCC, CRL-3216)

[26] = target: T26, human KOR (Homo sapiens, UniProt P41145, W287A); experiment: cell-based; conditions: HEK-293T
T26 construct: expressed in transfected cells; host or cells: HEK 293T (ATCC, CRL-3216)

[27] = target: T27, human KOR (Homo sapiens, UniProt P41145, F114L); experiment: cell-based; conditions: HEK-293T
T27 construct: expressed in transfected cells; host or cells: HEK 293T (ATCC, CRL-3216)

[28] = target: human KOR (Homo sapiens, UniProt P41145); experiment: cell-based
[29] = target: T28, human KOR (Homo sapiens, UniProt P41145, S211A); experiment: cell-based; conditions: HEK-293T
T28 construct: expressed in transfected cells; host or cells: HEK 293T (ATCC, CRL-3216)

[30] = target: T29, human KOR (Homo sapiens, UniProt P41145, G319L); experiment: cell-based; conditions: HEK-293T
T29 construct: expressed in transfected cells; host or cells: HEK 293T (ATCC, CRL-3216)
T29 sequence (P41145 whole entry G319L): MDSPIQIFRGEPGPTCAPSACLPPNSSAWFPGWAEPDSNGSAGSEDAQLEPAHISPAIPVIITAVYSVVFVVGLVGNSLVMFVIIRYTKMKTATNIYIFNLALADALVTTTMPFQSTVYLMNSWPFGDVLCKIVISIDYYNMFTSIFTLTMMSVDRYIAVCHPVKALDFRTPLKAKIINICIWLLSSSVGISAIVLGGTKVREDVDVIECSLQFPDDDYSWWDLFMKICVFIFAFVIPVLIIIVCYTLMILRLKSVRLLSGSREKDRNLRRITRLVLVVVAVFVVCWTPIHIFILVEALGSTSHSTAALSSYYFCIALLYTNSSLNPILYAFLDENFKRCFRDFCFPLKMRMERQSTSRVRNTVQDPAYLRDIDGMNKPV

T10 sequence (P41145 whole entry): as the sequence (P41145 whole entry G319L) above, with L319G counted along it
T18 sequence (P41145 whole entry D155A): as the sequence (P41145 whole entry G319L) above, with D155A, L319G counted along it
T23 sequence (P41145 whole entry R170A): as the sequence (P41145 whole entry G319L) above, with R170A, L319G counted along it
T27 sequence (P41145 whole entry F114L): as the sequence (P41145 whole entry G319L) above, with F114L, L319G counted along it
T28 sequence (P41145 whole entry S211A): as the sequence (P41145 whole entry G319L) above, with S211A, L319G counted along it
T21 sequence (P41145 whole entry F283A): as the sequence (P41145 whole entry G319L) above, with F283A, L319G counted along it
T19 sequence (P41145 whole entry N322A): as the sequence (P41145 whole entry G319L) above, with L319G, N322A counted along it
T20 sequence (P41145 whole entry G319L): as the sequence (P41145 whole entry G319L) above
T7 sequence (P41145 whole entry R271A): as the sequence (P41145 whole entry G319L) above, with R271A, L319G counted along it
T17 sequence (P41145 whole entry K227A): as the sequence (P41145 whole entry G319L) above, with K227A, L319G counted along it
T11 sequence (P41145 whole entry D334A): as the sequence (P41145 whole entry G319L) above, with L319G, D334A counted along it
T1 sequence (P41145 whole entry N326A): as the sequence (P41145 whole entry G319L) above, with L319G, N326A counted along it
T13 sequence (P41145 whole entry K200A): as the sequence (P41145 whole entry G319L) above, with K200A, L319G counted along it
T2 sequence (P41145 whole entry E297A): as the sequence (P41145 whole entry G319L) above, with E297A, L319G counted along it
T6 sequence (P41145 whole entry F114L): as the sequence (P41145 whole entry G319L) above, with F114L, L319G counted along it
T22 sequence (P41145 whole entry D266A): as the sequence (P41145 whole entry G319L) above, with D266A, L319G counted along it
T12 sequence (P41145 whole entry T94V): as the sequence (P41145 whole entry G319L) above, with T94V, L319G counted along it
T5 sequence (P41145 whole entry Q115N): as the sequence (P41145 whole entry G319L) above, with Q115N, L319G counted along it
T16 sequence (P41145 whole entry R274A): as the sequence (P41145 whole entry G319L) above, with R274A, L319G counted along it
T4 sequence (P41145 whole entry N141A): as the sequence (P41145 whole entry G319L) above, with N141A, L319G counted along it
T3 sequence (P41145 whole entry R257A): as the sequence (P41145 whole entry G319L) above, with R257A, L319G counted along it
T25 sequence (P41145 whole entry S324C): as the sequence (P41145 whole entry G319L) above, with L319G, S324C counted along it
Sequence of human KOR (Homo sapiens, UniProt P41145) (P41145 whole entry): as the sequence (P41145 whole entry G319L) above, with L319G counted along it
T15 sequence (P41145 whole entry Y139L): as the sequence (P41145 whole entry G319L) above, with Y139L, L319G counted along it
T24 sequence (P35372 whole entry): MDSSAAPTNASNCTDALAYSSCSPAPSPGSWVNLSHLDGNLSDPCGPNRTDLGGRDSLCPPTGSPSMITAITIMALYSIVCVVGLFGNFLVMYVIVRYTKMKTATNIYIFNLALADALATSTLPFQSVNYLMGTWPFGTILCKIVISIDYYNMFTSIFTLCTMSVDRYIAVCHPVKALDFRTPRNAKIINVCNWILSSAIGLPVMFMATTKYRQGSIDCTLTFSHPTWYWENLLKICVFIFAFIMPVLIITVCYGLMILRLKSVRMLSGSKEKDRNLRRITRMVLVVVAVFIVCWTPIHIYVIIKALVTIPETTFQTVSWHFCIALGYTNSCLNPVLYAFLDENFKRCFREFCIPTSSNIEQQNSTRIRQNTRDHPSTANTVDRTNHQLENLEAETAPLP
T8 sequence (P41145 whole entry Y320L): as the sequence (P41145 whole entry G319L) above, with L319G, Y320L counted along it
T26 sequence (P41145 whole entry W287A): as the sequence (P41145 whole entry G319L) above, with W287A, L319G counted along it
T14 sequence (P41145 whole entry D105A): as the sequence (P41145 whole entry G319L) above, with D105A, L319G counted along it
T9 sequence (P41145 whole entry L253A): as the sequence (P41145 whole entry G319L) above, with L253A, L319G counted along it

CN(C(=O)/C=C/c1ccoc1)[C@@H]1CC[C@@]2(O)[C@H]3Cc4ccc(O)c5c4[C@@]2(CCN3CC2CC2)[C@H]1O5 [Nalfurafine, nalfurafine]
FC vs wild type [1]: 4
Emax ([1]; HEK-293T): 103%
FC vs wild type [2]: 2
Emax ([2]; HEK-293T): 98.9%
FC vs wild type [3]: 14 and 10
FC vs wild type [4]: 9
Emax ([4]; HEK-293T): 101%
FC vs wild type [5]: 24
Emax ([5]; HEK-293T): 65.8%
FC vs wild type [6]: 40
Emax ([6]; HEK-293T): 67.4%
FC vs wild type [7]: 135
Emax ([7]; HEK-293T): 107%
Emax [8]: 75.8%
Emax [9]: 109%
Emax% [10]: 98.31%
FC vs wild type [10]: 1
Emax ([10]; HEK-293T): 98.7%
FC vs wild type [11]: 18
Emax ([11]; HEK-293T): 96.9%
FC vs wild type [12]: 1
Emax ([12]; HEK-293T): 99.7%
FC vs wild type [13]: 8
Emax ([13]; HEK-293T): 91.4%
FC vs wild type [14]: 110
FC vs wild type [15]: 3
FC vs wild type [16]: 479
Emax ([16]; HEK-293T): 99.5%
FC vs wild type [17]: 1
Emax ([17]; HEK-293T): 107%
FC vs wild type [18]: 9 and < 10
Emax ([18]; HEK-293T): 95.7%
FC vs wild type [19]: 100
Emax ([19]; HEK-293T): 91.3%
FC vs wild type [20]: 20
Emax ([20]; HEK-293T): 101%
FC vs wild type [21]: 13
Emax ([21]; HEK-293T): 89.5%
FC vs wild type [22]: 132
Emax ([22]; HEK-293T): 108%
FC vs wild type [23]: 6 and ~10
Emax ([23]; HEK-293T): 86.9%
Ki [24]: 13.2 nM
Emax [25]: 99 ± 2%
Emax [26]: 98 ± 4%
Emax [27]: 97 ± 4%
activation at 3.162 pM ([27]; read-out: cAMP response): 9.34%
activation at 31.62 pM ([27]; read-out: cAMP response): 29.6%
activation at 0.0001 µM ([27]; read-out: cAMP response): 36.4%
activation at 0.001 µM ([27]; read-out: cAMP response): 68%
activation at 0.01 µM ([27]; read-out: cAMP response): 90.9%
activation at 0.1 µM ([27]; read-out: cAMP response): 99.9%
activation at 1 µM ([27]; read-out: cAMP response): 97.6%
activation at […] ([27]; read-out: cAMP response): 66.6% and 88.8% and 97.4% and 103%
reduction of potency [28]: 5 fold
Emax [29]: 107 ± 2%
activation at 1 pM ([29]; read-out: cAMP response): 16.4%
activation at 3.162 pM ([29]; read-out: cAMP response): 71%
activation at 10 pM ([29]; read-out: cAMP response): 91.3%
activation at 31.62 pM ([29]; read-out: cAMP response): 99.8%
activation at 0.0001 µM ([29]; read-out: cAMP response): 106%
activation at 0.001 µM ([29]; read-out: cAMP response): 107%
activation at 0.01 µM ([29]; read-out: cAMP response): 108%
activation at 0.1 µM ([29]; read-out: cAMP response): 107%
activation at 1 µM ([29]; read-out: cAMP response): 103%
activation at […] ([29]; read-out: cAMP response): 107% (2×) and 105% and 104%
Emax [30]: 103 ± 4%
activation at 1 pM ([30]; read-out: cAMP response): 18.4%
activation at 31.62 pM ([30]; read-out: cAMP response): 24%
activation at 0.0001 µM ([30]; read-out: cAMP response): 46%
activation at 0.001 µM ([30]; read-out: cAMP response): 62.9%
activation at 0.01 µM ([30]; read-out: cAMP response): 94.9%
activation at 0.1 µM ([30]; read-out: cAMP response): 107%
activation at 1 µM ([30]; read-out: cAMP response): 104%
activation at […] ([30]; read-out: cAMP response): 44.6% and 75.9% and 100%
